Results on 4 compounds are retold here after patent publication US8110555B2, “7-hydroxy chromones as potent antioxidants” (Unigen, Inc., priority 2002, dated 2012).

One assay deals with tyrosinase. Particulars: cited from earlier work; for type of tyrosinase inhibition (Lineweaver Burk diagram): Yagi et al. (1987).
In assay [1] the test system is oxygen radical damage of β-phycoerythrin (β-PE) indicator protein. In words: Oxygen Radical Absorption Capacity (ORAC) assay, whole ORAC. Type of assay: biochemical. Particulars: FIG. 4. From the text:
The Oxygen Radical Absorption Capacity (ORAC) assay is a method for measuring total serum antioxidant activity. (Cao et al. (1993) Free Rad. Biol. Med. 14:303-311). It can be used to quantitatively measure the total antioxidant capacity, as well as, qualitatively measure the levels of fast versus slow acting antioxidants in a blood serum sample. The assay utilizes the free radical sensitive fluorescent indicator protein β-phycoerythrin (β-PE) to monitor the effectiveness of various serum antioxidants in protecting β-PE from becoming damaged by free radicals. Assay results are quantitated by allowing the reaction to reach completion and then integrating the area under the kinetic curve relative to a blank reaction containing no antioxidant. The area under the curve is proportional to the concentration of all the antioxidants present in the sample. (DeLang and Glazer (1989) Analyt. Biochem. 177:300-306).
The chromones, Aloesin and Aloeresin A, were tested for Oxygen Radical Absorption Capacity (ORAC) relative to green tea extract which contains more than 50% total catechins and more than 25% epigallocatechingallate (EGCG) and grape seed extract which contains more than 95% total phenols. The ORAC assay measures the time-dependent decrease in the fluorescence of β-phycoerythrin (β-PE) indicator protein, resulting from oxygen radical damage. This assay provides a quantitative measure of the total antioxidant capacity to protect the free radical sensitive β-phycoerythrin. Each reaction was calibrated using the known standard Trolox, a water soluble vitamin E analogue. The ORAC value refers to the net protection area under the quenching curve of β-phycoerythrin in the presence of an antioxidant. The results of the assay are reported on the basis of 1 ORAC unit equals 1 μM of Trolox. Aloeresin A (purity 76.0%), aloesin (95.2%), green tea extract and grape seed extract were dissolved in deionized water (5% solution W/V) and tested directly using the experimental procedures described in Cao et al. (1994) Free Radic. Biol. Med. 16:135-137 and Prior and Cao (1999) Proc. Soc. […]

The test system is the same in assay [2]. In words: Fast and slow Oxygen Radical Absorption Capacity (ORAC). The following applies: for slow antioxidant activity, comparison in words: slow ORAC (50% of β-phycoerythrin survives). Type of assay: biochemical. The source says: Ascorbic acid, free phenolic compounds and thiol compounds are fast acting antioxidants. The slow antioxidant activity is a measure of the net protection area under the quenching curve of β-phycoerythrin in the presence of an antioxidant, which inhibits free radical propagation to the extent that 50% of β-phycoerythrin survives. Flavonoids, carotenoids and polyphenols are slow acting antioxidants. Aloeresin A (purity 76.0%), Aloesin (95.2%), green tea extract and grape seed extract, respectively were dissolved in deionized water (5% (W/V) solution) and tested directly using the experiment procedures described by Cao et al. (1994) Free Radic. Biol. Med. 16:135-137 and Prior and Cao (1999) Proc. Soc. Exp. Biol. Med. 220:255-261.

The subject of assay [3] is spontaneous lipid peroxidation reaction. In words: Lipid Peroxidation Inhibition Capacity (LPIC) assay, MDA by thiobarbituric acid reaction. Type of assay: biochemical. The following applies: for inhibition of lipid peroxidation: concentration 5 mg/mL in phosphate-saline buffer. The source says:
The Lipid Peroxidation Inhibition Capacity (LPIC) assay is a method for measuring the ability of a sample to inhibit the initiation and propagation of a spontaneous lipid peroxidation reaction. Lipid peroxidation represents the major mechanism of lipid destruction occurring in an organism. This reaction is also an important source of reactive oxygen species. In part, lipid peroxidation is controlled in vivo by:
Lipid Peroxidation Inhibition Capacity (LPIC) is a measure of the anti-oxidative ability of a sample to inhibit the initiation and propagation of a spontaneous lipid peroxidation reaction. Malonyldialdehyde (MDA) is one of the major by-products of lipid peroxidation and is commonly used as a means of measuring the extent of lipid peroxidation. MDA concentrations were measured using the thiobarbituric acid reaction. Aloeresin A (purity 76.0%), vitamin C and cc-tocopherol were dissolved in a phosphate-saline buffer at four different concentrations (5 mg/mL, 10 mg/mL, 25 mg/mL and 50 mg/mL) and then tested directly using the experiment procedures described by Stocks et al. (1974) Clinical Sci. Mol. 47:215-222 and Yu and Lee, U.S. Pat. No. 5,939,395.

Assay [4] deals with oxygen radical damage of β-phycoerythrin (β-PE) indicator protein. As to the kind of experiment: ORAC of a meta-berry fruit drink product with added aloeresin A. It is filed as biochemical. The following applies: aloeresin A at a concentration of 5%; FIG. 7. The protocol:
A fruit drink product obtained from Oasis Wellness Network was determined, using the methods described in Example 3, to have an ORAC value of 3,129/oz. Aloeresin A, containing 76.0% aloeresin A was added to 40 mL of the drink (lot #0612, exp. […] These samples were then tested for whole ORAC value relative to the product in the absence of aloeresin A. using the experiment procedures illustrated described by Cao et al. (1994) Free Radic. Biol. Med. 16:135-137 and Prior and Cao (1999) Proc. Soc. Exp. Biol. Med. 220:255-261).

pIC50: −log10 of the molar value.

For the compound `COc1cc(/C=C/C(=O)O[C@@H]2[C@@H](O)[C@H](O)[C@@H](CO)O[C@H]2c2c(O)cc(C)c3c(=O)cc(CC(C)=O)oc23)ccc1O` [2″-feruloylaloesin, 2″-O-feruloylaloesin, reference compound], in the assay on tyrosinase, the “type of tyrosinase inhibition (Lineweaver Burk diagram)” value was “non-competitive inhibitor”.
As to `CC(=O)Cc1cc(=O)c2c(C)cc(O)c([C@@H]3O[C@H](CO)[C@@H](O)[C@H](O)[C@H]3OC(=O)/C=C/c3ccc(O)cc3)c2o1` [aloeresin A], the “whole ORAC value higher than grape seed extract” value in assay [1] (5% (W/V) solution, difference to grape seed extract) amounted to 299. Besides, in assay [1] (5% (W/V) solution, difference to green tea extract), the “whole ORAC value higher than green tea extract” value came to 33. In addition, the “fast antioxidant potency relative to the other three compositions” value in assay [2] (fast ORAC (95% of β-phycoerythrin survives), 5% (W/V) solution, FIG. 5) is given as “four times more potent as a fast antioxidant”. The “slow antioxidant activity, comparison in words” value in assay [2] (5% (W/V) solution, FIG. 5) is “superior antioxidant relative to grape seed and green tea extracts”. Also, the “inhibition of lipid peroxidation” value in assay [3] was 30.7%. In addition, in assay [3] (concentrations of 10 mg/mL to 50 mg/mL, vs α-tocopherol and vitamin C, FIG. 6), the “lipid peroxidation inhibition capacity (LPIC), comparison in words” value is recorded as “stronger antioxidant than either α-tocopherol or vitamin C”. Further, the “increase of ORAC value of a multiple berry fruit drink” value in assay [4] is 31.3%.
For the compound `CC(=O)Cc1cc(=O)c2c(C)cc(O)c([C@@H]3O[C@H](CO)[C@@H](O)[C@H](O)[C@H]3O)c2o1` [aloesin], in assay [1] (5% (W/V) solution in deionized water, vs aloeresin A, green tea and grape seed extracts), the “whole ORAC value, comparison in words” value is “much higher whole ORAC value than aloeresin A and the standardized green tea and grape seed extracts”. For the same compound, in assay [2] (50% ORAC conditions, relative to grape seed extract), the “more active than grape seed extract at 50% ORAC conditions” value was “more than six times more active”. Besides, the “more active than green tea extract at 50% ORAC conditions” value in assay [2] (50% ORAC conditions, relative to green tea extract) is reported as “over 70%”. In addition, the “slow antioxidant activity, comparison in words” value in assay [2] (5% (W/V) solution, FIG. 5) was “more potent as a slow acting antioxidant”. Moreover, in the assay on tyrosinase, the “type of tyrosinase inhibition (Lineweaver Burk diagram)” value is given as “competitive inhibitor”. Also, the pIC50 at tyrosinase (substrate L-DOPA, read-out: concentration for 50% inhibition of tyrosinase activity) was 3.70.
For the compound `Cc1c(C)c2c(c(C)c1O)CC[C@@](C)(CCC[C@H](C)CCC[C@H](C)CCCC(C)C)O2` [α-tocopherol, reference compound], the “inhibition of lipid peroxidation” value in assay [3] was “below 10%”.
